The record followed here is patent US20220062233A1 (The Board of Trustees of the Leland Stanford Junior …, priority 2018, published 2022).

Data set [1] has as its system mutant HTT. The data set can be described thus: Mutant HTT assay in lymphoblastoid cells (LBC), Western blot. Conditions: read-out: LBC IC20 (nM) mHTT, 3 days compound treatment. In kind it is cell-based, human. As to the method: (§1) B. Mutant and Wild-Type HTT Assay in Lymphoblastoid Cells (LBC)
(§2) a. Cell Culturing and Compound Treatment
(§3) Lymphoblastoid cells derived from a Huntington's disease patient with 250 CAG repeats in the mutant HTT allele (GM14044 from Coriell Institute) were cultured in RPMI 1640 (Corning Cellgro, 10-040-CV) containing fetal bovine serum (Atlanta Biologicals, S11150). 4×10^5 cells were seeded on a 24-well plate and incubated with testing compound for 3 days. The cell suspension was then transferred to a 1.5 ml Eppendorf tube. Cells were collected by centrifugation and washed once with PBS. After all liquid was removed, the cell pellet was placed at −80° C. for at least 10 minutes. Lysis buffer [30 mM Tris-HCl (pH 8.0), 5 mM NaCl, 0.1% Triton X-100] with the proteinase inhibitor cocktail (P8340 from Sigma-Aldrich) was then added to the cells. Following centrifugation (14 k rpm for 15 min at 4° C.), the supernatant was collected. The protein concentrations were determined by BCA assay (Pierce, ThermoFisher).
(§4) Equal amounts of protein were loaded onto 4-12% gel (Invitrogen, WG1403A). After electrophoresis, the gels were transferred to nitrocellulose membranes by wet transfer at 72V for 3 hrs. […] The protein levels of mutant HTT, wild-type HTT, TBP, and tubulin were determined by immunoblotting with anti-polyQ specific antibody (clone MW1), anti-Huntingtin antibody (Abcam, ab45169), anti-TBP antibody (Sigma, T1827) and anti-alpha tubulin antibody (Sigma, T9026). Blots were imaged on a Li-Cor Odyssey infrared imager. The band intensities were determined by Li-Cor Odyssey software.
A general note: A western blot detects proteins with antibodies after separation by electrophoresis.

Data set [2] relates to M2-8 cells. The data set can be described thus: M2-8 Cell viability Assay. Format: cell-based. Conditions: at the concentration of 1000 nM.
In data set [3] the test system is wild-type HTT. Kind of data set: Wild-type HTT assay in lymphoblastoid cells (LBC), Western blot. In kind it is cell-based, human. Here is the method: as §1, §2, §3, §4
The target in data set [4] is T1, interaction between Supt4h and NGN (subunit of Supt5h) (Homo sapiens, UniProt O00267+P63272).
T1 construct: expressed in transfected cells
The data set can be described thus: Split Gaussia luciferase complementation assay (M2-8 Luciferase). In kind it is cell-based. Particulars: M2-8 cells. Here is the method: A. Split Gaussia Luciferase Complementation Assay […]
i: pNBR-X1-Supt4-Gluc1 and pNEBR-X1-NGN-Gluc2
The HA-Supt4h and Flag-NGN fragments are amplified by PCR using the plasmid pHA-Supt4h-YC and pFlag-NGN-YN and sub-cloned individually into pcDNA3.1-Gluc1 and pcDNA3.1-Gluc2 (described in “A highly sensitive protein-protein interaction assay based on Gaussia luciferase” published at Nat Methods. 2006 December; 3(12):977-9. Epub 2006 Nov. 12). Then HA-Supt4h-Gluc1 and Flag-NGN-Gluc2 are amplified by PCR and inserted to pNEBR-X1-Hygro (New England BioLabs), which contain RheoSwitch responsive element under the control of RheoSwitch ligand. […]
ii: pNEBR-X1-Supt4h-G1-NGN-G2
PCR products containing the sequence from 5XRE to polyA in pNEBR-X1-NGN-G2 are inserted to pNEBR-X1-Supt4h-G1 at Pcil site to generate Supt4h-G1 and NGN-G2 bidirectional under their own RheoSwitch responsive element and polyA in the same plasmid. […]
b. Stable Cloned Cell Line i: 293-R1 is a cloned cell line which is engineered to constitutively express RSL1 receptor/activator by transfecting HEK 293 cells with pNEBR-R1 plasmid (New England BioLabs) and selected with blasticidin. […]
ii: M2-8 is a cloned 293-R1 cell which can inducibly express pNEBR-X1-Supt4h-G1-NGN-G2 by addition of RSL1. Two point mutations ([…] and M110I) are introduced to the GL1 and GL2 for better stability according to “A high-throughput cell-based Gaussia luciferase reporter assay for identifying modulators of fibulin-3 secretion” published in J Biomol Screen. 2013 July; 18(6):647-58. The cell line is selected by hygromycin. […]
c. Cell Culture and Transfection Condition
All the HEK-293 cells and derivative clones are maintained in DMEM containing 10% FBS plus corresponding antibiotics (250 μg/ml hygromycin B, 10 μg/ml blasticidin or both) at 37° C., 5% CO2. All the transfections are done by using Lipofectamine 2000 (Invitrogen) according to the manufacturer's instructions. […]
d. Bioluminescence Assay from Cell Lysates
Plasmids harboring the Gluc1 and Gluc2 are co-transfected in a 1:1 ratio into 293-R1 cells plated on tissue culture treated 24-well plates using Lipofectamine 2000 according to the manufacturer's instructions. For stable M2-8 cells, the cells are directly plated into 96-well or 384-well white plates. Twenty-four hours later, RheoSwitch ligand with or without test compound is added to the cells for induction/drug treatment. After 24 hr, the cells are washed with PBS and the plate was stored at −20° C. overnight. Lysis buffer [30 mM Tris-HCl (pH 8.0) 5 mM NaCl, 0.1% Triton X-100] with 10 μg/ml native coelenterazine (Nanolight Technology) is then added to the cells at room temperature for one hour in the dark. After shaking for about 1 min, 40 μl of cell lysate are transferred to a white 96-well plate. For M2-8 in white micro plate, no transfer is needed. Signal intensities (integrated 100 ms) were read on Tecan Infinite M200 or M1000.
The split Gaussia luciferase complementation assay measures the interaction between Sup4h and NGN. NGN is the subunit of Supt5h that binds to Supt4h.

Data set [5] concerns Lymphoblastoid cells (GM14044). Kind of data set: LBC cell viability (Cell Titer-Glo). Format: cell-based, human. Particulars: at the concentration of IC20, 3-day compound treatment. Here is the method:
Cell viability was determined by Cell Titer-Glo reagent (Promega, PRG9243). After 3-day compound treatment, 15 μl of cell suspension was taken out from plate and incubated with 10 μl of CTG reagent. The values of reaction mixture were detected by Tecan.
On the technique in general: In ATP-based viability assays light output follows the ATP content of the culture.

The mark [6] stands for this setting: 3 days compound treatment, read-out: LBC IC20 (nM) wtHTT.

Like-named read-outs stand apart in the source and are kept apart here. A value given as a limit tells only on which side of the number the result lay.

With `N#Cc1ccc(CN[C@@H]2CCCc3c2[nH]c2ccc(Br)cc32)cc1` [Compound 26, (R)-4-(((6-bromo-2,3,4,9-tetrahydro-1H-carbazol-1-yl)amino)methyl)benzonitrile], the IC20 – broadly, the point of the concentration-response curve where the effect stands at 20% – is 101 to 300 nM in data set [1] and more than 1000 nM in data set [3] (read-out: LBC IC20 (nM) wtHTT, 3 days compound treatment). The “M2-8 Cell viability” value in data set [2] is “+ (cell viability is greater than 50% at the concentration of 1000 nM)”. In addition, the IC50 (in general, the concentration at which inhibition is half-maximal) in data set [4] fell in the range of 101 to 300 nM. Besides, in data set [5], the “LBC viability at IC20” value is “* (cell viability is greater than 60% at the concentration of IC20)”.

As for `COc1ccc(CN[C@@H]2CCCc3c2[nH]c2ccc(Br)cc32)cc1` [Compound 25, (R)-6-bromo-N-(4-methoxybenzyl)-2,3,4,9-tetrahydro-1H-carbazol-1-amine], the IC20 in data set [1] is 301 to 1000 nM; in data set [3] (setting [6]), more than 1000 nM. The “M2-8 Cell viability” value in data set [2] is “+ (cell viability is greater than 50% at the concentration of 1000 nM)”. In data set [4], this compound registered an IC50 of 101 to 300 nM. Besides, in data set [5], the “LBC viability at IC20” value is listed as “* (cell viability is greater than 60% at the concentration of IC20)”.

Take `COc1cccc(CN[C@@H]2CCCc3c2[nH]c2ccc(Br)cc32)c1` [Compound 24, (R)-6-bromo-N-(3-methoxybenzyl)-2,3,4,9-tetrahydro-1H-carbazol-1-amine]: the IC20 is 101 to 300 nM in data set [1] and more than 1000 nM in data set [3] (setting [6]). Also, the “M2-8 Cell viability” value in data set [2] is “+ (cell viability is greater than 50% at the concentration of 1000 nM)”. Besides, in data set [4], the IC50 is not above 100 nM. In data set [5], the “LBC viability at IC20” value is on record as “* (cell viability is greater than 60% at the concentration of IC20)”.

Turning to `Brc1ccc2[nH]c3c(c2c1)CCC[C@H]3NCc1cccc2ccccc12` [Compound 19, (R)-6-bromo-N-(naphthalen-1-ylmethyl)-2,3,4,9-tetrahydro-1H-carbazol-1-amine], the IC20 is 101 to 300 nM in data set [1] and more than 1000 nM in data set [3] (setting [6]). Moreover, the “M2-8 Cell viability” value in data set [2] is on record as “+ (cell viability is greater than 50% at the concentration of 1000 nM)”. Further, in data set [4], the IC50 is not above 100 nM. In addition, in data set [5], the “LBC viability at IC20” value is reported as “* (cell viability is greater than 60% at the concentration of IC20)”.

Regarding `CC1(C)CCC(NCc2ccccc2)c2[nH]c3ccc(Br)cc3c21` (centres unmarked) [Compound 16], the “M2-8 Cell viability” value in data set [2] is “+ (cell viability is greater than 50% at the concentration of 1000 nM)”. The IC50 in data set [4] was more than 1000 nM.

Turning to `CC1(C)Cc2c([nH]c3ccc(Br)cc23)[C@H](NCc2ccccc2)C1` [Compound 17], the “M2-8 Cell viability” value in data set [2] is recorded as “+ (cell viability is greater than 50% at the concentration of 1000 nM)”. The IC50 in data set [4] is more than 1000 nM.

With `COCc1ccc(CN[C@@H]2CCCc3c2[nH]c2ccc(Br)cc32)cc1` [Compound 27, (R)-6-bromo-N-(4-(methoxymethyl)benzyl)-2,3,4,9-tetrahydro-1H-carbazol-1-amine], the IC20 in data set [1] is 101 to 300 nM; in data set [3] (setting [6]), more than 1000 nM. In addition, the “M2-8 Cell viability” value in data set [2] is listed as “+ (cell viability is greater than 50% at the concentration of 1000 nM)”. Moreover, in data set [4], the IC50 is not above 100 nM. For the same compound, the “LBC viability at IC20” value in data set [5] is “* (cell viability is greater than 60% at the concentration of IC20)”.

Consider `Brc1ccc2[nH]c3c(c2c1)CCC[C@H]3NCc1ccc(I)cc1` [Compound 40, (R)-6-bromo-N-(4-iodobenzyl)-2,3,4,9-tetrahydro-1H-carbazol-1-amine], for which the “M2-8 Cell viability” value in data set [2] is reported as “+ (cell viability is greater than 50% at the concentration of 1000 nM)”. Besides, the IC50 in data set [4] was 101 to 300 nM.

On to `CC(=O)c1ccc2[nH]c3c(c2c1)CCC[C@H]3NCc1ccccc1` [Compound 46, (R)-1-(1-(benzylamino)-2,3,4,9-tetrahydro-1H-carbazol-6-yl)ethan-1-one], for which the “M2-8 Cell viability” value in data set [2] is “+ (cell viability is greater than 50% at the concentration of 1000 nM)”. Besides, the IC50 in data set [4] is 301 to 1000 nM.

In the case of `Cn1c2c(c3cc(Br)ccc31)CCCC2NCc1ccccc1` (centres unmarked) [Compound 18], in data set [2], the “M2-8 Cell viability” value is “+ (cell viability is greater than 50% at the concentration of 1000 nM)”. This compound gave an IC50 in data set [4] of more than 1000 nM.

Consider `Nc1ccc(CN[C@@H]2CCCc3c2[nH]c2ccc(Br)cc32)cc1` [Compound 21, (R)—N-(4-aminobenzyl)-6-bromo-2,3,4,9-tetrahydro-1H-carbazol-1-amine], for which the IC20 is 101 to 300 nM in data set [1] and more than 1000 nM in data set [3] (setting [6]). The “M2-8 Cell viability” value in data set [2] was “+ (cell viability is greater than 50% at the concentration of 1000 nM)”. The compound further came in with an IC50 in data set [4] not above 100 nM. Further, the “LBC viability at IC20” value in data set [5] was “* (cell viability is greater than 60% at the concentration of IC20)”.

On to `CCc1ccc2[nH]c3c(c2c1)CCC[C@H]3NCc1ccccc1` [Compound 6], for which the “M2-8 Cell viability” value in data set [2] is reported as “+ (cell viability is greater than 50% at the concentration of 1000 nM)”. The same compound displayed an IC50 in data set [4] of 301 to 1000 nM.

Regarding `OCc1cccc(CN[C@@H]2CCCc3c2[nH]c2ccc(Br)cc32)c1` [Compound 57, (R)-(3-(((6-bromo-2,3,4,9-tetrahydro-1H-carbazol-1-yl)amino)methyl)phenyl)methanol], in data set [2], the “M2-8 Cell viability” value is recorded as “+ (cell viability is greater than 50% at the concentration of 1000 nM)”. In data set [4], the IC50 is not above 100 nM.

Turning to `Cn1cncc1CN[C@@H]1CCCc2c1[nH]c1ccc(Br)cc21` [Compound 35, (R)-6-bromo-N-((1-methyl-1H-imidazol-5-yl)methyl)-2,3,4,9-tetrahydro-1H-carbazol-1-amine], in data set [2], the “M2-8 Cell viability” value is “+ (cell viability is greater than 50% at the concentration of 1000 nM)”. In data set [4], this compound registered an IC50 of 301 to 1000 nM.

For `Oc1cccc(-c2ccc3[nH]c4c(c3c2)CCC[C@H]4NCc2ccccc2)c1` [Compound 9, (R)-3-(1-(benzylamino)-2,3,4,9-tetrahydro-1H-carbazol-6-yl)phenol], the “M2-8 Cell viability” value in data set [2] is “+ (cell viability is greater than 50% at the concentration of 1000 nM)”. Further, the IC50 in data set [4] is 301 to 1000 nM.

On to `CC(=O)N1CCN(Cc2ccc(CN[C@@H]3CCCc4c3[nH]c3ccc(Br)cc43)cc2)CC1` [Compound 73], for which, in data set [2], the “M2-8 Cell viability” value was “+ (cell viability is greater than 50% at the concentration of 1000 nM)”. The IC50 in data set [4] was 101 to 300 nM.
